Laboratory results as given in patent publication US20250099420A1, “SMALL MOLECULE MODULATORS OF GPR139 COMPLEX” (University of Florida Research Foundation, Incorporated, priority 2022, published 2025).
Where two headings read alike, the source gives them in different places.

Key:
GPR139 = target: T1, GPR139 (Homo sapiens, UniProt Q6DWJ6); test: GPR139 Agonist titration / agonist counterscreen assay (calcium detection, HEK-GPR139 cells); type: cell-based; set-up: expressed in transfected cells; host or cells: HEK Aequorin cells, Maxcyte transient transfection; settings: GPR139 Agonist Activity; for Averaged Max % Response (±St. Dev.): activity relative to known control; for EC50: read-out: EC50
T1 sequence (Q6DWJ6 1-353): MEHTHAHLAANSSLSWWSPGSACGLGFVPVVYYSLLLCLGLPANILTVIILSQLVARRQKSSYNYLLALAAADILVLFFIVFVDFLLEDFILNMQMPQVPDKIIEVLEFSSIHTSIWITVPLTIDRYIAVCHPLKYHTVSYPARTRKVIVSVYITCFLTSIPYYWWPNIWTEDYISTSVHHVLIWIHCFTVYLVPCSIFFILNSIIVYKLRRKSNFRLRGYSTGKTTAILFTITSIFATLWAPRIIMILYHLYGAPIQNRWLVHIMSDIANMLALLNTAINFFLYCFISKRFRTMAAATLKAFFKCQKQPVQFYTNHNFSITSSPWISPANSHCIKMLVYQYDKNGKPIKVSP
Description: GPR activity was assessed using a calcium detection assay. […] Negative control samples were treated with DMSO. […] Intracellular calcium was measured using Calcium 5.

parental HEK cells = test: HEK parental Agonist Counterscreen Assay (non-transfected cells); type: cell-based; settings: for Averaged Max % Response (±St. Dev.): activity relative to known control
From the text: The high control for the agonist counterscreen was Forskolin not acetylcholine.

[1] = values printed in E-notation without unit
[2] = HEK Agonist Activity, parental non-transfected HEK cells
[3] = Homo sapiens, HEK293, HEK Agonist Activity section of Table 4 (parental HEK counterscreen)
[4] = HEK Agonist Activity section of Table 4 (parental HEK counterscreen)
[5] = Homo sapiens, HEK293, HEK Agonist Activity, parental non-transfected HEK cells

SMILES | Averaged Max % Response (±St. Dev.) (GPR139) [%] | Lipophilic Efficiency (logD) (GPR139; based on logD) | Lipophilic Efficiency (logP) (GPR139; based on logP) | Hill Slope (GPR139; fitted dose-response curve) | Efficiency Ligand (GPR139; ligand efficiency) | EC50 (GPR139; [1]) [nM] | Lipophilic Efficiency (logD) (parental HEK cells; HEK Agonist Activity) | Lipophilic Efficiency (logP) (parental HEK cells; HEK Agonist Activity) | Averaged Max % Response (±St. Dev.) (parental HEK cells; HEK Agonist Activity) [%] | Lipophilic Efficiency (logD) (parental HEK cells; HEK Agonist Activity section) | Lipophilic Efficiency (logP) (parental HEK cells; HEK Agonist Activity section) | Averaged Max % Response (±St. Dev.) (parental HEK cells; HEK Agonist Activity section) [%] | EC50 (parental HEK cells; [3]) [nM] | also measured
CC(C)CN1CCNC(=O)C1CC(=O)NCCCn1ccc2ccccc21 (centres unmarked) [SR-01000176150] | 110.06 ± 19.04 | 6.35 | 6.03 | 0.64 | 0.40 | 19.2 | 3.48 | 3.17 | −3.65 ± 2.66 | – | – | – | – | EC50 (parental HEK cells; [2]): > 14100 nM
COc1ccccc1CN1CCNC(=O)C1CC(=O)NCCCN1CCc2ccccc21 (centres unmarked) [SR-01000176838] | 83.30 ± 1.40 | – | – | – | – | – | – | – | – | 3.04 | 3.02 | −8.12 ± 1.57 | > 14100 | Efficiency Ligand (GPR139): 0.27; Hill Slope (GPR139): 0.77; Lipophilic Efficiency (logD) (GPR139): 4.34; Lipophilic Efficiency (logP) (GPR139): 4.32; EC50 (GPR139; HEK-GPR139 cells): 697 nM
CC(C)(C)CN1CCNC(=O)C1CC(=O)NCCc1cnn(-c2ccccc2)c1 (centres unmarked) [SR-01000177515] | 91.26 ± 4.77 | 5.92 | 5.67 | 0.48 | 0.37 | 22.6 | 3.12 | 2.87 | 24.98 ± 4.71 | – | – | – | – | EC50 (parental HEK cells; [2]): > 14100 nM
O=C(NCC1Cc2cccc(-c3ccccn3)c2O1)c1ccc(-n2cccn2)cc1 (centres unmarked) [SR-01000183606] | 89.43 ± 6.88 | 3.97 | 3.96 | 0.82 | 0.36 | 22 | 1.16 | 1.16 | −9.57 ± 3.95 | – | – | – | – | EC50 (parental HEK cells; [2]): > 14100 nM
CCOC(=O)C1CCN(C(=O)C2CC(Cc3cccc4ccccc34)=NO2)CC1 (centres unmarked) [SR-01000185621] | 81.20 ± 9.68 | – | – | – | – | – | – | – | – | 1.69 | 1.69 | −9.62 ± 7.28 | > 14100 | Efficiency Ligand (GPR139): 0.28; Hill Slope (GPR139): 0.84; Lipophilic Efficiency (logD) (GPR139): 2.73; Lipophilic Efficiency (logP) (GPR139): 2.73; EC50 (GPR139; HEK-GPR139 cells): 1300 nM
O=C(C1CC(Cc2cccc3ccccc23)=NO1)N1CCC(C(O)Cc2ccccc2)CC1 (centres unmarked) [SR-01000185712] | 110.27 ± 5.24 | 2.48 | 2.48 | 0.46 | 0.29 | 122 | – | – | – | 0.41 | 0.41 | 9.02 ± 5.86 | – | EC50 (parental HEK cells; [4]): > 14100 nM
Cc1nc(CNC(=O)CCC2(Cc3cccc4ccccc34)CCC(=O)N2)cs1 (centres unmarked) [SR-01000187393] | 99.15 ± 6.04 | 4.29 | 4.29 | 0.44 | 0.32 | 196 | – | – | – | 2.44 | 2.44 | 6.35 ± 6.79 | > 14100 | –
O=C(NCc1csc(-c2cccs2)n1)C1CC(Cc2ccc3c(c2)OCO3)=NO1 (centres unmarked) [SR-01000187428] | 99.03 ± 14.80 | 3.43 | 3.43 | 1.55 | 0.32 | 201 | – | – | – | 1.59 | 1.59 | 6.44 ± 5.26 | > 14100 | –
O=C(NC1CC1)C1CC(Cc2cccc3ccccc23)=NO1 (centres unmarked) [SR-01000188699] | 112.57 ± 11.99 | 4.37 | 4.37 | 1.05 | 0.46 | 63.8 | – | – | – | 2.02 | 2.02 | 4.63 ± 6.30 | > 14100 | –
C=CCC(O)(CC=C)C(C)NC(=O)CCC1(Cc2ccc3ccccc3c2)CCC(=O)N1 (centres unmarked) [SR-01000190122] | 134.89 ± 17.50 | 3.22 | 3.22 | 0.52 | 0.30 | 161 | – | – | – | 1.27 | 1.27 | 0.66 ± 6.28 | – | EC50 (parental HEK cells; [4]): > 14100 nM
CN(CCC(=O)NCC1Cc2cccc(-c3ccccn3)c2O1)C1CCS(=O)(=O)C1 (centres unmarked) [SR-01000193031] | 95.01 ± 4.20 | – | – | – | – | – | – | – | – | 4.36 | 4.19 | 25.60 ± 3.67 | > 14100 | Efficiency Ligand (GPR139): 0.30; Hill Slope (GPR139): 0.62; Lipophilic Efficiency (logD) (GPR139): 5.90; Lipophilic Efficiency (logP) (GPR139): 5.73; EC50 (GPR139; HEK-GPR139 cells): 406 nM
COC(=O)C(CCSC)NC(=O)C1CC(Cc2ccc3c(c2)OCO3)=NO1 (centres unmarked) [SR-01000193756] | 75.38 ± 12.05 | – | – | – | – | – | – | – | – | 3.01 | 3.01 | −12.55 ± 2.76 | – | Efficiency Ligand (GPR139): 0.30; Hill Slope (GPR139): 0.69; Lipophilic Efficiency (logD) (GPR139): 4.01; Lipophilic Efficiency (logP) (GPR139): 4.01; EC50 (GPR139; HEK-GPR139 cells): 1400 nM; EC50 (parental HEK cells; [4]): > 14100 nM
CC(NC(=O)Cn1cc(NC(=O)c2ccccc2F)cn1)c1ccccc1Cl (centres unmarked) [SR-01000194602] | 94.95 ± 1.55 | 4.44 | 4.44 | 0.71 | 0.39 | 19.1 | 1.58 | 1.58 | 4.93 ± 4.93 | – | – | – | – | EC50 (parental HEK cells; [2]): > 14100 nM
O=C(c1ccccc1)C1CCCCC1S(=O)(=O)O (centres unmarked) [SR-01000197834] | 95.96 ± 5.70 | 6.98 | 4.61 | 1.09 | 0.54 | 131 | – | – | – | 4.95 | 2.58 | 18.65 ± 10.85 | > 14100 | –
O=C(NNC(=O)C1CC1c1ccccc1)Nc1cccc(Cl)c1 (centres unmarked) [SR-01000202338] | 79.48 ± 15.63 | 4.84 | 4.84 | 1.63 | 0.48 | 11.6 | 1.76 | 1.76 | 4.74 ± 3.91 | – | – | – | – | EC50 (parental HEK cells; [5]): > 14100 nM
COc1cccc(C(=O)NNC(=O)CCCOc2ccc(Cl)cc2Cl)c1 [SR-01000205482] | 120.13 ± 6.96 | 5.35 | 5.34 | – | 0.47 | – | 1.53 | 1.52 | −5.45 ± 10.43 | – | – | – | – | EC50 (parental HEK cells; [2]): > 14100 nM
Cc1cccnc1CNC(=O)CCC1(Cc2cccc3ccccc23)CCC(=O)N1 (centres unmarked) [SR-01000207758] | 124.78 ± 10.06 | 3.82 | 3.82 | 0.77 | 0.31 | 178 | – | – | – | 1.92 | 1.92 | 2.94 ± 8.83 | – | EC50 (parental HEK cells; [4]): > 14100 nM
Cc1cc(C)c(/C=C2/NC(=N)NC2=O)c(C)c1 [SR-01000218376] | 76.44 ± 0.80 | 3.82 | 3.82 | 0.92 | 0.59 | 60.5 | – | – | – | 1.45 | 1.45 | 1.93 ± 7.79 | > 14100 | –
COc1ccc(NC(=O)NCCOc2cccc3ccccc23)cc1OC [SR-01000223498] | 115.59 ± 14.29 | 4.05 | 4.05 | 0.81 | 0.39 | 33.9 | 1.43 | 1.43 | 15.10 ± 2.28 | – | – | – | – | EC50 (parental HEK cells; [5]): > 14100 nM
